d = 2'-deoxy (DNA)

The target of the series is T1, PPARγ2 (Homo sapiens, UniProt P37231).
T1 sequence (P37231 1-505): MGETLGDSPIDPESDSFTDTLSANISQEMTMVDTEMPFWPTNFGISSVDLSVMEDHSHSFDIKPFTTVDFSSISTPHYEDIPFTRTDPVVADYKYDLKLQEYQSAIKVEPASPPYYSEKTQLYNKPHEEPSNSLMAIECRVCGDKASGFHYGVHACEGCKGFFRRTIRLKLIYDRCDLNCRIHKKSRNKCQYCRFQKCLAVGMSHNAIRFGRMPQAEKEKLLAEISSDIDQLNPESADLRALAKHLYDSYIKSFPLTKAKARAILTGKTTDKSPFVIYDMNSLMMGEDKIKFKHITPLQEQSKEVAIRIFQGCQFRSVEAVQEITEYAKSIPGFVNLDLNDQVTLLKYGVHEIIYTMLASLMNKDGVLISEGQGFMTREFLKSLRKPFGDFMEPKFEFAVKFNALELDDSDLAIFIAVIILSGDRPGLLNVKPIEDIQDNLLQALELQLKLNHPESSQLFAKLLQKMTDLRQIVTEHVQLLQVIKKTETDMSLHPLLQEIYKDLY
Kind of series: Luciferase reporter gene analysis (FABP4-Luc) of PPARγ2 transcriptional activity in 293T cells. The format is cell-based. On the set-up: expressed in transfected cells; host or cells: 293T cells. Conditions: for sLZIP-mediated PPARγ2 transcriptional activity (luciferase): 293T cells expressing sLZIP, 100 nM si-RNAs, with or without 10 nM RZD. As for the experimental part:
C3H10T1/2 and 293T cells were plated in a 12-well culture dish at a density of 2×10^5 cells/well and incubated for 24 hours. Then, according to instructions of the manufacturer, the cells were transfected with a 0.2 μg of reporter genes and 0.1 to 0.5 μg of a laboratory plasmid using Lipofectamine 2000 or Genefectine. After 24 hours, the cells were cultured in a serum-free DMEM with or without 10 nM of rosiglitazone. siRNAs were prepared using sLZIP and HDAC target sequences (Table 1). For an RNA interference experiment, according to instructions of the manufacturer, the cells were transfected with scrambled control group RNA and appropriate siRNAs using Lipofectamine 2000. Human MSC and C3H10T/1/2 cells were infected with an adenovirus vector containing cDNA of human sLZIP or an empty vector. The infected medium was exchanged with a fresh medium after two hours.
Appropriately transfected cells were washed with cold PBS twice, and a reporter lysis buffer (Promega) was used and lysed in a culture dish. Luciferase analysis was performed using a luciferase analysis system (Promega Corporation, Madison, Wis.). A luciferase activity was recorded in Luminometer 20/20^n (Turner BioSystems, Sunnyvale, Calif.) according to instructions of the manufacturer. The luciferase activity was normalized to a β-galactosidase activity. For β-galactosidase analysis, CMV-β-galactosidase was transfected with luciferase reporter genes. All pieces of data were represented as mean±standard deviation of the results from at least three independent experiments.
In order to examine an effect of sLZIP on the transcriptional activity of PPARγ2, 293T cells were temporarily transfected with PPARγ2 (0.5 μg), β-galactosidase (0.1 μg), FABP4-Luc reporter genes (0.2 μg) and sLZIP at different contents (0.1 to 0.5 μg). After the transfection, the cells were stimulated with or without 10 nM of rosiglitazone (RZD) (FIG. 1A), pioglitazone (PZD) (FIG. 1B), and troglitazone (TZD) (FIG. 1C). A relative luciferase activity was analyzed with or without cell ligand treatment 24 hours after transfection. Also, the 293T cells were transiently transfected with si-sLZIP at different contents (50 and 100 nM), and the cells were treated or not treated with RZD (FIG. 1D). FABP4-Luc stable C3H10T1/2 cells were infected with a sLZIP-expressing adenovirus, and then differentiated into adipocytes for 4 days (FIG. 1E). A luciferase activity was normalized to a β-galactosidase activity and represented as a relative activity (fold change). All experiments were repeated three times, and bars in the graph represent mean±standard deviation. *, P<0.05; **, P<0.01
For this purpose, 293T cells were transiently transfected with PPARγ2 (0.5 μg), (3-galactosidase (0.1 μg), FABP4-Luc reporter genes (0.2 μg) and sLZIP (0.1 μg). After the transfection, the cells were stimulated with or without 10 nM of RZD and 10 nM of TSA (FIG. 4A). A promoter activity was measured according to luciferase analysis. In the 293T cells, FABP4-Luc reporter genes, sLZIP, PPAR, β-galactosidase, and 100 nM of si-RNAs and HDAC1, 2, 3 and 8 for a control group were expressed. After the transfection, the cells were stimulated with or without 10 nM of RZD, and a promoter activity was measured (FIG. 4B). 293T cells were temporarily transfected with FABP4-Luc reporter genes, PPARγ2, β-galactosidase, HDAC3 (0.5 μg) and sLZIP (0.1 μg). After the transfection, the cells were stimulated with or without 10 nM of RZD, and luciferase analysis was performed (FIG. 4C). A luciferase activity was normalized to a β-galactosidase activity and represented as a relative intensity (fold change). All experiments were repeated three times, and bars in the graph represent mean±standard deviation. GFP-sLZIP expression constructs were expressed in C3H10T1/2 cells, rabbit anti-HDAC3 antibodies and Texas Red-labeled anti-rabbit antibodies were used and analysis was performed under a fluorescence microscope. The nucleus was stained with DAPI (FIG. 4D). […]

Turning to “siRNA for HDAC8: siRNA with HDAC8 target sequence, SEQ ID NO: 13 and 14 (chain 1 CAUUCAGGAUGGCAUACAA; chain 2 UUGUAUGCCAUCCUGAAUGGG; RNA, 3' dTdT, backbone not given here) [reference compound]”, the “sLZIP-mediated PPARγ2 transcriptional activity (luciferase)” value is “not involved in sLZIP-mediated PPARγ2 regulation”.
Regarding “si-sLZIP: siRNA for sLZIP, SEQ ID NO: 5 and 6 (+dTdT) (chain 1 GGACCCAGAUGACUCCACAGCAUAU; chain 2 AUAUGCUGUGGAGUCAUCUGGGUCC; RNA, 3' dTdT, backbone not given here) [reference compound]”, the “transcriptional activity of PPARγ2 (relative luciferase activity)” value (293T cells, si-sLZIP 50 and 100 nM, treated or not treated with RZD) is on record as “increased the transcriptional activity of PPARγ2”.
Turning to “siRNA for HDAC2: siRNA with HDAC2 target sequence, SEQ ID NO: 9 and 10 (chain 1 GGUCAAUAAGACCAGAUAA; chain 2 UUAUCUGGUCUUAUUGACCG; RNA, 3' dTdT, backbone not given here) [reference compound]”, the “sLZIP-mediated PPARγ2 transcriptional activity (luciferase)” value is listed as “not involved in sLZIP-mediated PPARγ2 regulation”.
On to “siRNA for HDAC3: siRNA with HDAC3 target sequence, SEQ ID NO: 11 and 12, used to knock down HDAC3 (chain 1 GCCGGUUAUCAACCAGGUA; chain 2 UACCUGGUUGAUAACCGGC; RNA, 3' dTdT, backbone not given here) [reference compound]”, for which the “sLZIP-mediated PPARγ2 transcriptional activity (luciferase)” value is listed as “significantly increased”.
With “siRNA for HDAC1: siRNA with HDAC1 target sequence, SEQ ID NO: 7 and 8 (chain 1 CGACUGUUUGAGAACCUUA; chain 2 UAAGGUUCUCAAACAGUCGCU; RNA, 3' dTdT, backbone not given here) [reference compound]”, the “sLZIP-mediated PPARγ2 transcriptional activity (luciferase)” value is listed as “not involved in sLZIP-mediated PPARγ2 regulation”.

These data come from patent US10058586B2, “Use of human small leucine zipper protein in adipocyte differentiation procedure” (Korea University Research and Business Foundation, priority 2013, dated 2018).
